Assay results: ChEMBL document CHEMBL1135157, “Focused library approach for identification of new N-acylphenylalanines as VCAM/VLA-4 antagonists” (Bioorg Med Chem Lett, 2002)

What was measured:
[1] = Inhibition of Very late antigen 4/vascular cell adhesion molecule 1 activity in ELISA assay, at 10 nM concentration
Integrin alpha-4/beta-1 = Integrin alpha-4/beta-1 (Homo sapiens, UniProt P05556+P13612); assay: Inhibition of Very late antigen 4 of Ramos cell adhesion to vascular cell adhesion molecule 1; assay type: cell-based
[2] = Inhibition of Very late antigen 4/vascular cell adhesion molecule 1 inhibition activity in an ELISA assay

Chain of Integrin alpha-4/beta-1 (P05556 whole entry): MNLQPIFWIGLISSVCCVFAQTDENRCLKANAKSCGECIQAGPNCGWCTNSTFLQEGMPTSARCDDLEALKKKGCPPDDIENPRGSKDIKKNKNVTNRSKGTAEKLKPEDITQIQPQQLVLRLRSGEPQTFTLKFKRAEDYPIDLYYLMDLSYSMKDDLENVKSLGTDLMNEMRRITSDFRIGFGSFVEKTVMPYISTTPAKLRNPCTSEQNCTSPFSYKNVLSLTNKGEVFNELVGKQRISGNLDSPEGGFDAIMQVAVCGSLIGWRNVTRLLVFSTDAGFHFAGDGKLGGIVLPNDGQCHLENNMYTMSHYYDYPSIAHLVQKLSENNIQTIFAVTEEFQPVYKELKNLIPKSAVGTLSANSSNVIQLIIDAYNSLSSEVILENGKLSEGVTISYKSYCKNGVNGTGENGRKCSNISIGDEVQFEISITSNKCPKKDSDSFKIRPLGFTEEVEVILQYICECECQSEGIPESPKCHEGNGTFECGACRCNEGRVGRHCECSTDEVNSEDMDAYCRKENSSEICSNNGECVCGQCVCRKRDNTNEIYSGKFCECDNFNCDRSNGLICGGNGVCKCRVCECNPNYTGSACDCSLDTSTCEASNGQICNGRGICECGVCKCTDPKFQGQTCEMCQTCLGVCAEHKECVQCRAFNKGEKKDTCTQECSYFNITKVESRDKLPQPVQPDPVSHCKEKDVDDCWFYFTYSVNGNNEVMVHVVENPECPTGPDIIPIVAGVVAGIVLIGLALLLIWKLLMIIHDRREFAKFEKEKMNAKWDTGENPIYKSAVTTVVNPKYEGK
Chain of Integrin alpha-4/beta-1 (P13612 whole entry): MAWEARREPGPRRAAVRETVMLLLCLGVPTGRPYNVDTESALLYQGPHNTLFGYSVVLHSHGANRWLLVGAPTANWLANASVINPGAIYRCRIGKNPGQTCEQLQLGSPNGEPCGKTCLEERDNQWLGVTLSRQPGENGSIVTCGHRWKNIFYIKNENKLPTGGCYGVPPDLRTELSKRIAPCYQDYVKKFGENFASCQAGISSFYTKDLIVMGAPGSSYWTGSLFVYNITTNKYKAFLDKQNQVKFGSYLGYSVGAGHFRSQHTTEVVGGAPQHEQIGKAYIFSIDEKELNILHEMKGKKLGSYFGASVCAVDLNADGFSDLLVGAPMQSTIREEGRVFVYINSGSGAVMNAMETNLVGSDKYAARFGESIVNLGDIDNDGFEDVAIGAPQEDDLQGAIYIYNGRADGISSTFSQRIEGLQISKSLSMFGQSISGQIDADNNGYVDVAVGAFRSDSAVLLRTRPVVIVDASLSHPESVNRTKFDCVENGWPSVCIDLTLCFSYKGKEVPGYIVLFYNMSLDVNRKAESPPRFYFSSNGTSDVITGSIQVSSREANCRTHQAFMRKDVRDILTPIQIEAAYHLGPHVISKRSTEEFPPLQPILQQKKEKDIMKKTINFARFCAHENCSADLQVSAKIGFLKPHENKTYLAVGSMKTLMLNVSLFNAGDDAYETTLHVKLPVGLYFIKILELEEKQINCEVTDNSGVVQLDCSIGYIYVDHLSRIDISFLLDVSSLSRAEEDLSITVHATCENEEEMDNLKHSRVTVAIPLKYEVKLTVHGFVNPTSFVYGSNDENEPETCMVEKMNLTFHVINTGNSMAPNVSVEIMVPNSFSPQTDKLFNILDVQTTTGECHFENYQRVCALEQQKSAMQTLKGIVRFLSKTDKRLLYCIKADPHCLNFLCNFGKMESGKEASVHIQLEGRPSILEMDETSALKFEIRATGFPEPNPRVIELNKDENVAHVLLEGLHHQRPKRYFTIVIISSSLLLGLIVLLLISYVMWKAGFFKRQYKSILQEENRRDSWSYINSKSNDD

Compound	inhibition [1] [%]	IC50 (Integrin alpha-4/beta-1) [nM]	IC50 [2] [nM]
O=C(Nc1ccc(C[C@H](NC(=O)C2CCC2)C(=O)O)cc1)c1ccnc2ccccc12	17		
O=C(Nc1ccc(C[C@H](NC(=O)[C@H]2CCC(=O)N2Cc2ccccc2)C(=O)O)cc1)c1c(Cl)cccc1Cl		12	0.37
Cc1noc(C)c1C(=O)N[C@@H](Cc1ccc(NC(=O)c2ccnc3ccccc23)cc1)C(=O)O	46		
N#CC1(C(=O)N[C@@H](Cc2ccc(NC(=O)c3ccnc4ccccc34)cc2)C(=O)O)CCCC1	64		7.6
O=C(Nc1ccc(C[C@H](NC(=O)C2(c3ccccc3)CCCC2)C(=O)O)cc1)c1c(Cl)cccc1Cl		98	1.7
O=C(Nc1ccc(C[C@H](NC(=O)C2CC2)C(=O)O)cc1)c1ccnc2ccccc12	12		
CC1(C(=O)N[C@@H](Cc2ccc(NC(=O)c3ccnc4ccccc34)cc2)C(=O)O)CC1(Cl)Cl (some centres undefined)	69		3
C[C@H]1CC[C@@](C)(C(=O)N[C@@H](Cc2ccc(NC(=O)c3ccnc4ccccc34)cc2)C(=O)O)C1(C)C	51		2.3
Cc1ccc(C2(C(=O)N[C@@H](Cc3ccc(NC(=O)c4ccnc5ccccc45)cc3)C(=O)O)CCCC2)cc1	63		9.1
CCC(C)(C)C(=O)N[C@@H](Cc1ccc(NC(=O)c2ccnc3ccccc23)cc1)C(=O)O	30		
Cc1cc(C)c(C(=O)N[C@@H](Cc2ccc(NC(=O)c3ccnc4ccccc34)cc2)C(=O)O)c(C)c1	45		
COc1ccc(C2(C(=O)N[C@@H](Cc3ccc(NC(=O)c4ccnc5ccccc45)cc3)C(=O)O)CCCCC2)cc1	77		1.2
O=C(Nc1ccc(C[C@H](NC(=O)C2CCCCC2)C(=O)O)cc1)c1ccnc2ccccc12	37		
O=C(Nc1ccc(C[C@H](NC(=O)C2(c3ccc(Cl)cc3)CCCC2)C(=O)O)cc1)c1ccnc2ccccc12	53		6.4
CC1(C)C(C(=O)N[C@@H](Cc2ccc(NC(=O)c3ccnc4ccccc34)cc2)C(=O)O)C1(C)C	33		
O=C(Nc1ccc(C[C@H](NC(=O)[C@@H]2CCCN2C(=O)CCc2ccccc2)C(=O)O)cc1)c1ccnc2ccccc12	65		2.1
CC1(C(=O)N[C@@H](Cc2ccc(NC(=O)c3ccnc4ccccc34)cc2)C(=O)O)CCCCC1	49		7
COc1ccc(C2(C(=O)N[C@@H](Cc3ccc(NC(=O)c4ccnc5ccccc45)cc3)C(=O)O)CCCC2)cc1	73		1.4
O=C(Nc1ccc(C[C@H](NC(=O)C2(c3ccccc3)CCCC2)C(=O)O)cc1)c1ccccc1C(F)(F)F			10
Cc1cccc(C)c1C(=O)N[C@@H](Cc1ccc(NC(=O)c2c(Cl)cccc2Cl)cc1)C(=O)O		81	1.2
O=C(Nc1ccc(C[C@H](NC(=O)C2(c3ccccc3)CCCC2)C(=O)O)cc1)c1ccccc1			23
O=C(Nc1ccc(C[C@H](NC(=O)C2(c3ccccc3)CCCC2)C(=O)O)cc1)c1cccnc1Oc1ccccc1		2400	6.1
CC(=O)N1CSC[C@H]1C(=O)N[C@@H](Cc1ccc(NC(=O)c2ccnc3ccccc23)cc1)C(=O)O	37		
O=C(Nc1ccc(C[C@H](NC(=O)C23CC4CC(CC(C4)C2)C3)C(=O)O)cc1)c1ccnc2ccccc12	72		2.4
CC(=O)N1CCC[C@H]1C(=O)N[C@@H](Cc1ccc(NC(=O)c2ccnc3ccccc23)cc1)C(=O)O	61		2
O=C(Nc1ccc(C[C@H](NC(=O)C2(c3ccccc3)CCCC2)C(=O)O)cc1)c1nccc2ccccc12		1300	9.8
O=C(Nc1ccc(C[C@H](NC(=O)[C@@H]2CSCN2C(=O)CCc2ccccc2)C(=O)O)cc1)c1ccnc2ccccc12	53		1.9
CC(C)(C)C(=O)N[C@@H](Cc1ccc(NC(=O)c2ccnc3ccccc23)cc1)C(=O)O	23		
CCCCC(C)(CC)C(=O)N[C@@H](Cc1ccc(NC(=O)c2ccnc3ccccc23)cc1)C(=O)O (some centres undefined)	49		8.2
O=C(Nc1ccc(C[C@H](NC(=O)C2CCCC2)C(=O)O)cc1)c1ccnc2ccccc12	25		

The remaining lines, values ahead:

inhibition [1] [%]	IC50 (Integrin alpha-4/beta-1) [nM]	IC50 [2] [nM]	Compound
	590	2.7	O=C(Nc1ccc(C[C@H](NC(=O)C2(c3ccccc3)CCCC2)C(=O)O)cc1)c1ccnc2ccccc12 (stereo in doubt; 56)
42			O=C(N[C@@H](Cc1ccc(NC(=O)c2ccnc3ccccc23)cc1)C(=O)O)c1ccccc1F
73		4.7	O=C(N[C@@H](Cc1ccc(NC(=O)c2ccnc3ccccc23)cc1)C(=O)O)c1ccccc1[N+](=O)[O-]
68		2.9	O=C(N[C@@H](Cc1ccc(NC(=O)c2ccnc3ccccc23)cc1)C(=O)O)c1ccccc1Cl
49		5.8	CCC(C(=O)N[C@@H](Cc1ccc(NC(=O)c2ccnc3ccccc23)cc1)C(=O)O)c1ccccc1 (some centres undefined)
64		1.7	O=C(N[C@@H](Cc1ccc(NC(=O)c2ccnc3ccccc23)cc1)C(=O)O)c1c(F)cccc1F
		3.4	O=C(Nc1ccc(C[C@H](NC(=O)C2(c3ccccc3)CCCC2)C(=O)O)cc1)c1ccnc2ccccc12 (stereo in doubt; 46) [listing 1 of 2 here]
73		4.6	CC(C)C(C(=O)N[C@@H](Cc1ccc(NC(=O)c2ccnc3ccccc23)cc1)C(=O)O)c1ccccc1 (some centres undefined)
15			O=C(Nc1ccc(C[C@H](NC(=O)C2CCc3ccccc3C2)C(=O)O)cc1)c1ccnc2ccccc12 (some centres undefined)
24			O=C(Nc1ccc(C[C@H](NC(=O)[C@@H]2CSCN2C(=O)c2ccccc2)C(=O)O)cc1)c1ccnc2ccccc12
19			O=C(N[C@@H](Cc1ccc(NC(=O)c2ccnc3ccccc23)cc1)C(=O)O)c1ccccc1
74		2.5	Cc1cccc(C)c1C(=O)N[C@@H](Cc1ccc(NC(=O)c2ccnc3ccccc23)cc1)C(=O)O
61		6.6	O=C(N[C@@H](Cc1ccc(NC(=O)c2ccnc3ccccc23)cc1)C(=O)O)c1cccnc1Cl
12			O=C(CCc1ccccc1)N[C@@H](Cc1ccc(NC(=O)c2ccnc3ccccc23)cc1)C(=O)O
31			Cc1cccc(C(=O)N[C@@H](Cc2ccc(NC(=O)c3ccnc4ccccc34)cc2)C(=O)O)c1C
81		2.2	O=C(N[C@@H](Cc1ccc(NC(=O)c2ccnc3ccccc23)cc1)C(=O)O)c1ccccc1Br
67		5.6	O=C(Nc1ccc(C[C@H](NC(=O)C2(c3ccccc3)CCCCC2)C(=O)O)cc1)c1ccnc2ccccc12
68			O=C(Nc1ccc(C[C@H](NC(=O)C2(c3ccccc3)CCCC2)C(=O)O)cc1)c1ccnc2ccccc12 (stereo in doubt; 46) [listing 2 of 2 here]
18			O=C(Nc1ccc(C[C@H](NC(=O)[C@@H]2CCCN2C(=O)c2ccccc2)C(=O)O)cc1)c1ccnc2ccccc12
13			O=C(N[C@@H](Cc1ccc(NC(=O)c2ccnc3ccccc23)cc1)C(=O)O)C(=O)c1ccccc1
19			O=C(Nc1ccc(C[C@H](NC(=O)C2(c3ccccc3)CC2)C(=O)O)cc1)c1ccnc2ccccc12
